Results from the NIST ThermoML archive (doi:10.1016/j.jct.2018.09.023).
± gives the expanded uncertainty stated by the source.

Experiment: activity coefficient (dimensionless); of the first substance listed, at infinite dilution; xn = mol fraction of the nth substance listed
Settings: 101.33 kPa, Liquid, Chromatography, x1 = 0

SMILES	activity coefficient (323.15 K)	activity coefficient (333.15 K)	activity coefficient (343.15 K)	activity coefficient (353.15 K)	activity coefficient (363.15 K)
CCO [ethanol] + CCC[n+]1ccn(C)c1.[Br-]	0.208 ± 0.033	0.197 ± 0.033	0.19 ± 0.032	0.184 ± 0.032	0.18 ± 0.032
CCOC(C)=O [ethyl acetate] + CCC[n+]1ccn(C)c1.[Br-]	3.68 ± 0.39	3.86 ± 0.41	4.07 ± 0.43	4.27 ± 0.45	4.46 ± 0.47
CCc1ccccc1 [ethylbenzene] + CCC[n+]1ccn(C)c1.[Br-]	5.48 ± 0.58	5.67 ± 0.6	5.84 ± 0.61	6.01 ± 0.63	6.19 ± 0.65
CCCCCCC [heptane] + CCC[n+]1ccn(C)c1.[Br-]	106 ± 11	102 ± 11	98.5 ± 10	95.4 ± 10	92.5 ± 9.7
CCCCCC [hexane] + CCC[n+]1ccn(C)c1.[Br-]	102 ± 11	98.9 ± 10	95.6 ± 10	92.5 ± 9.7	89.9 ± 9.5
CO [methanol] + CCC[n+]1ccn(C)c1.[Br-]	0.112 ± 0.03	0.108 ± 0.03	0.106 ± 0.03	0.103 ± 0.03	0.102 ± 0.03
CCCCCCCCC [nonane] + CCC[n+]1ccn(C)c1.[Br-]	119 ± 13	115 ± 12	110 ± 12	106 ± 11	103 ± 11
CCCCCCCC [octane] + CCC[n+]1ccn(C)c1.[Br-]	111 ± 12	107 ± 11	104 ± 11	100 ± 11	97.7 ± 10
ClC(Cl)(Cl)Cl [tetrachloromethane] + CCC[n+]1ccn(C)c1.[Br-]	0.78 ± 0.08	0.86 ± 0.09	0.96 ± 0.1	1.07 ± 0.11	1.17 ± 0.12
Cc1ccccc1 [toluene] + CCC[n+]1ccn(C)c1.[Br-]	2.95 ± 0.31	3.11 ± 0.33	3.33 ± 0.35	3.5 ± 0.37	3.72 ± 0.39

Other lines, results leading:

activity coefficient (323.15 K)	activity coefficient (333.15 K)	activity coefficient (343.15 K)	activity coefficient (353.15 K)	activity coefficient (363.15 K)	SMILES
82.3 ± 8.7	79.9 ± 8.4	77.5 ± 8.2	75.2 ± 7.9	73.2 ± 7.7	CC1CCCCC1 [methylcyclohexane] + CCC[n+]1ccn(C)c1.[Br-]
0.692 ± 0.072	0.651 ± 0.069	0.619 ± 0.066	0.592 ± 0.063	0.575 ± 0.062	CCCCCO [pentan-1-ol] + CCC[n+]1ccn(C)c1.[Br-]
0.279 ± 0.038	0.268 ± 0.037	0.258 ± 0.036	0.25 ± 0.036	0.244 ± 0.035	CCCO [propan-1-ol] + CCC[n+]1ccn(C)c1.[Br-]
0.373 ± 0.044	0.359 ± 0.043	0.344 ± 0.042	0.334 ± 0.042	0.326 ± 0.041	CC(C)O [propan-2-ol] + CCC[n+]1ccn(C)c1.[Br-]
1.83 ± 0.19	1.92 ± 0.2	2 ± 0.21	2.08 ± 0.22	2.17 ± 0.23	C=Cc1ccccc1 [styrene] + CCC[n+]1ccn(C)c1.[Br-]
2.11 ± 0.22	2.19 ± 0.23	2.28 ± 0.24	2.37 ± 0.25	2.47 ± 0.26	C1CCOC1 [tetrahydrofuran] + CCC[n+]1ccn(C)c1.[Br-]
0.13 ± 0.03	0.15 ± 0.03	0.16 ± 0.03	0.18 ± 0.03	0.2 ± 0.03	ClC(Cl)Cl [trichloromethane] + CCC[n+]1ccn(C)c1.[Br-]
